Assay in all cases: microbe, parasite or virus in culture
Common to all, as to format: cell-based

One assay concerns Septoria tritici. The conditions noted are these: Zymoseptoria tritici, 168 h.
A further assay concerns Phytophthora infestans. As to conditions: 168 h, read-out: Fungal growth at 31 ppm (%) PHYTIN.
Another assay deals with Fusarium culmorum. As to conditions: 168 h.

Take `CO/N=C(/C(=O)OC)c1cccc(C)c1CO/N=C(/c1cc(C(F)(F)F)ccn1)C1CC1` [Example 72, Methyl (2E)-2-[2-[[(E)-[cyclopropyl-[4-(trifluoromethyl)-2-pyridyl]methylene]amino]-oxymethyl]-3-methyl-phenyl]-2-methoxyimino-acetate]: the results for the activity at 31 ppm in the assay with Septoria tritici, in the assay on Phytophthora infestans and with Fusarium culmorum were 4%, 6% and 14%, respectively.
On to `CNC(=O)/C(=N/OC)c1cccc(C)c1CO/N=C(\C)c1ncsc1C(F)(F)F` [Example 41], for which the activity at 31 ppm was 2% with Septoria tritici, 0% with Phytophthora infestans and 9% with Fusarium culmorum.
